{"source": "patent US20260256741A1", "about": "“ANTICANCER MALEIMIDE DERIVATIVES FOR USE WITH IMMUNE CHECKPOINT BLOCKADE” (BROWN UNIVERSITY, priority 2022, published 2026)", "key": {"[1]": {"system": "NK-92 cells", "assay": "Cytokine profiling of cell culture supernatant (Luminex 200), NK-92", "assay_type": "cell-based, human", "experimental": "Cells were plated at 3.5×10^4 cells in a 48-well plate (Thermo Fisher Scientific, Waltham, MA, USA) in complete medium and incubated at 37° C. with 5% CO2. At 24 hours after plating, almost all the tumor cells were adherent to the bottom of the flask and the complete medium was replaced with the drug-containing medium. […] On the day of analysis, samples were thawed and centrifuged to remove cellular debris.\n(§1) Human cell line culture supernatants were analyzed using an R&D systems Human Premixed Multi-Analyte Kit (R&D Systems, Inc., Minneapolis, MN, USA) and a Luminex 200 (RRID: SCR_018025) Instrument (LX200-XPON-RUO, Luminex Corporation, Austin, TX, USA) according to the manufacturer's instructions. Sample levels of TNF-α, 4-1BB/TNFRSF9/CD137, IL-8/CXCL8, Ferritin, IFN-β, IL-10, CCL2/JE/MCP-1, VEGF, CXCL13/BLC/BCA-1, IFN-γ, CCL20/MIP-3 α, CCL3/MIP-1 α, CCL22/MDC, CCL4/MIP-1 β, Fas Ligand/TNFSF6, IL-17/IL-17A, IL-2, BAFF/BLyS/TNFSF13B, GM-CSF, CXCL5/ENA-78, TRANCE/TNFSF11/RANK L, CXCL9/MIG, G-CSF, IFN-γ R1/CD119, VEGFR3/Flt-4, C-Reactive Protein/CRP, CXCL11/I-TAC, IL-21, CXCL14/BRAK, IL-6, Fas/TNFRSF6/CD95, TRAIL R3/TNFRSF10C, IL-4, CCL5/RANTES, PD-L1/B7-H1, CCL7/MCP-3/MARC, Chitinase 3-like 1, CXCL10/IP-10/CRG-2, IL-1 β/IL-1F2, IL-7, Prolactin, CCL8/MCP-2, TRAIL R2/TNFRSF10B, M-CSF, IL-15, Granzyme B, IFN-α, TREM-1, IL-12/IL-23 p40, TRAIL/TNFSF10, CCL11/Eotaxin, and IL-18/IL-1F4. Quantitative analysis with 6 standards and a minimum of 50 counts per bead region was used with the Luminex to generate analyte values reported as picograms/milliliter (pg/mL). Sample concentrations less than the lower limit of detection for each particular analyte were recoded as the lower limit value divided by ten. Sample concentrations above the upper limit of detection for a particular analyte were recoded as the upper limit of detection."}, "[2]": {"system": "HCT-116 cells", "assay": "Microarray gene expression analysis, HCT-116", "assay_type": "cell-based, human", "experimental": "A total of 0.5×10^6 tumor cells (HCT-116, HT-29, KM12C) were plated in a 6-well plate and allowed to adhere overnight before 24-hour treatment as indicated. 1×10^6 immune cells (NK92, TALL-104) were plated and treated with elraglusib as indicated for 24 hours. RNA was isolated from cell pellets in batches of 6 using an RNeasy Plus Mini Kit (Cat #74134, Qiagen, Hilden, Germany). Acceptable RNA concentration and quality were verified with Nanodrop and Bioanalyzer measurements. GeneChip™ Human Transcriptome Array 2.0 assays were conducted according to manufacturer instructions in two batches using randomized samples to limit batch effects (Cat #902162, Applied Biosystems, Waltham, MA, USA). Applied Biosystems Transcriptomic Analysis Console (TAC) software (RRID: SCR_016519) was used to calculate fold changes in gene expression relative to the untreated control cells. Values were considered statistically significant for p values <0.05."}, "[3]": {"system": "TALL-104 cells", "assay": "Western blot analysis of TALL-104 immune cells", "assay_type": "cell-based, human", "experimental": "(§2) Cells were plated in a 6-well plate and incubated overnight before the spent media was replaced with drugged media. Drug treatment lasted for indicated durations. Protein was extracted using radioimmunoprecipitation (RIPA) assay buffer (Cat #R0278, Sigma-Aldrich, St. Louis, MO) containing cOmplete™, Mini, EDTA-free Protease Inhibitor Cocktail (Cat #4693159001, Roche, Basel, Switzerland) from sub-confluent cells. Denaturing sample buffer was added, samples were boiled at 95 degrees for 10 minutes, and an equal amount of protein lysate was electrophoresed through NuPAGE™ 4 to 12%, Bis-Tris, 1.5 mm, Mini Protein Gels (Invitrogen, Waltham, MA) then transferred to PVDF membranes. The PVDF membrane was blocked with 5% non-fat milk (Sigma-Aldrich, St. Louis, MO) in 1×TTBS. Primary antibodies were incubated with the transferred PVDF membrane in blocking buffer at 4° C. overnight. Secondary antibodies used included Goat anti-Rabbit IgG (H+L) Secondary Antibody, HRP (Cat #31460, Invitrogen, Waltham, MA), and Goat anti-Mouse IgG (H+L) Secondary Antibody, HRP (Cat #31430, Invitrogen, Waltham, MA). Signal was detected using Pierce™ ECL Western Blotting Substrate (Cat #32106, Thermo Scientific, Waltham, MA, USA) and a Syngene Imaging System (RRID: SCR_015770)."}, "[4]": {"system": "NK-92 natural killer cells", "assay": "Western blot analysis of NK-92 natural killer cells", "assay_type": "cell-based, human", "conditions": "through the 72-hour endpoint", "experimental": "as §2"}, "[5]": {"assay": "Patient plasma cytokine profiling (Luminex 200), Phase 1 trial", "assay_type": "in vivo, human", "experimental": "as §1, with “Sample concentrations above the upper limit of detection for a particular analyte were recoded as the upper limit of detection.” left out"}, "[6]": {"conditions": "as treatment duration increased (0-72 hours)"}, "[7]": {"conditions": "immune cell lysates, cell line not given, 0-72 hours"}}}
{"smiles": "Cn1cc(C2=C(c3coc4ccc(F)cc34)C(=O)NC2=O)c2cc3c(cc21)OCO3", "note": "[elraglusib, 3-(5-fluorobenzofuran-3-yl)-4-(5-methyl-5H-[1,3]dioxolo[4,5-f]indol-7-yl)-1H-pyrrole-2,5-dione]", "values": [{"measurement": "IFN-γ concentration in supernatant", "setting": "[1]; 1 μM, 48 hours", "result": "increases"}, {"measurement": "TRAIL concentration in supernatant", "setting": "[1]; 1 μM, 48 hours", "result": "increases"}, {"measurement": "secreted granzyme B concentration", "setting": "[1]; 1 μM, 48 hours", "result": "decreases"}, {"measurement": "IFN-γ in cell culture supernatant", "setting": "[1]; 24 hours treatment vs DMSO", "result": "significant increase in IFN-γ"}, {"measurement": "CMTM4 gene expression fold change", "setting": "[2]; 24 hours vs DMSO", "result": "−1.84", "unit": "FC"}, {"measurement": "NEK2 gene expression fold change", "setting": "[2]; 24 hours vs DMSO", "result": "−2.21", "unit": "FC"}, {"measurement": "PPP1R1C gene expression fold change", "setting": "[2]; 24 hours vs DMSO", "result": 1.78, "unit": "FC"}, {"measurement": "downregulated genes in VEGFA-VEGFR2 signaling pathway", "setting": "[2]; 24 hours vs DMSO", "result": 29}, {"measurement": "differentially expressed genes post-treatment", "setting": "[2]; IC-50 concentration (1 μM), 24 hours, FC cutoff >1.5, <−1.5, p<0.05", "result": 340}, {"measurement": "NF-κB protein", "setting": "[3]; [6]", "result": "did not notice significant changes"}, {"measurement": "survival protein Bcl-2", "setting": "[3]; [6]", "result": "did not notice significant changes"}, {"measurement": "NF-κB-inducing kinase (NIK)", "setting": "[3]; [7]", "result": "increases"}, {"measurement": "survival protein Survivin", "setting": "[3]; [7]", "result": "increases"}, {"measurement": "Mcl-1 protein expression", "setting": "[4]", "result": "did not observe a significant decrease"}, {"measurement": "plasma cytokines, chemokines and growth factors (many of the analytes) vs baseline", "setting": "[5]; 8- and 24-hours post-dose", "result": "upregulated"}, {"measurement": "plasma expression of many of the analytes in the panel", "setting": "[5]; patients receiving a 7 mg/kg dose, 8- and 24-hour post-dose", "result": "increased expression"}]}
